Some test systems named below: COLO 205 colon; IGROV1 ovarian; OVCAR-5 ovarian; OVCAR-8 ovarian; SK-OV-3 ovarian; SW-620 colon; U251 CNS; HCT-116 colon; HS 578T breast; MDA-MB-231 breast.
Holding throughout (experiment): DTP human tumour cell line panel, 48 h

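Cells were grown in 96-well plates and exposed to each compound for 48 hours at five concentrations; endpoints were interpolated linearly between bracketing concentrations, or set to the highest concentration if not reached. GI50 is the concentration that inhibits growth by half. TGI: total growth inhibition.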

With `N#CC1=C(c2ccccc2)OC2(N)OC(c3ccccc3)=C(C#N)C12C#N` (centres undefined), the TGI with COLO 205 colon, in the assay with IGROV1 ovarian, with OVCAR-5 ovarian, in the assay with OVCAR-8 ovarian, in the assay with SK-OV-3 ovarian and with SW-620 colon was above 100 µM each time. In the assay on U251 CNS, this compound yielded a TGI above 100 µM.

For the compound `CCOC(=O)c1cc(C(=O)c2cc(OC)c(OC)c(OC)c2)n2ccc(-c3cc[n+](CC(=O)c4cc(OC)c(OC)c(OC)c4)cc3)cc12`, the GI50 in the assay on HCT-116 colon is 1.72 µM; in the assay on HS 578T breast it was 1.74 µM; with IGROV1 ovarian, 2.12 µM; in the assay on MDA-MB-231 breast, 1.66 µM; with OVCAR-5 ovarian, 1.84 µM; in the assay on OVCAR-8 ovarian, 2.33 µM. Also, the values for the GI50 in the assay with SK-OV-3 ovarian and with SW-620 colon were 19.6 µM and 1.76 µM, respectively. Also, the TGI in the assay with HCT-116 colon stood at 3.5 µM; in the assay on HS 578T breast, 4.29 µM; with IGROV1 ovarian it was 5.92 µM; in the assay on MDA-MB-231 breast it was 3.29 µM; with OVCAR-5 ovarian, 5.24 µM; in the assay on OVCAR-8 ovarian, 5.47 µM. Besides, the TGI turned out to be 47.1 µM in the assay with SK-OV-3 ovarian and 3.47 µM in the assay on SW-620 colon.

`CCOP(=O)(OCC)C(NC(c1ccccc1)c1ccccc1)c1ccc(C(C)C)cc1` (centres undefined): the GI50 was 3.08 µM with HCT-116 colon; 6.12 µM with MDA-MB-231 breast; 5.04 µM with OVCAR-8 ovarian; 13.2 µM with SK-OV-3 ovarian; 4.08 µM with SW-620 colon; 3.63 µM with U251 CNS. Besides, the concentration for total growth inhibition (TGI) in the assay on HCT-116 colon is 11.3 µM; in the assay on MDA-MB-231 breast, 20.8 µM; in the assay on OVCAR-8 ovarian, 19.5 µM; in the assay with SK-OV-3 ovarian it was 34.7 µM; with SW-620 colon, 20.3 µM; in the assay with U251 CNS, 13.9 µM.

As to `CC(=O)[CH-]C(=O)c1ccccc1.CC(=O)[CH-]C(=O)c1ccccc1.CC(=O)[CH-]C(=O)c1ccccc1.[Br-].[Zr+4]`, the GI50 is above 100 µM with COLO 205 colon; above 100 µM in the assay with IGROV1 ovarian; 29.8 µM in the assay with OVCAR-5 ovarian; above 100 µM with OVCAR-8 ovarian; 74.8 µM in the assay on SK-OV-3 ovarian; above 100 µM in the assay on SW-620 colon. In addition, the GI50 in the assay with U251 CNS is 67.7 µM. The TGI in the assay on COLO 205 colon, in the assay with IGROV1 ovarian, with OVCAR-5 ovarian, in the assay on OVCAR-8 ovarian, in the assay with SK-OV-3 ovarian and with SW-620 colon was above 100 µM each time. In the assay with U251 CNS, this compound had a TGI above 100 µM.

Consider `FC(F)(F)c1nc(Br)[nH]c1C(F)(F)F`, for which the total growth inhibition concentration (TGI) in the assay with COLO 205 colon, in the assay on HCT-116 colon, with IGROV1 ovarian, with OVCAR-5 ovarian, with OVCAR-8 ovarian and with SK-OV-3 ovarian was above 100 µM each time. The TGI in the assay with SW-620 colon and in the assay on U251 CNS was above 100 µM each time.

On to `CC(=O)c1ccc(Oc2c3ccccc3nc3occc23)cc1`, for which the GI50 with COLO 205 colon was 24.1 µM; in the assay on HCT-116 colon it was 7.35 µM; in the assay with HS 578T breast, 12.4 µM; in the assay with IGROV1 ovarian it was 55.7 µM; in the assay on OVCAR-5 ovarian, 27.3 µM; with OVCAR-8 ovarian, 3.33 µM. The values for the GI50 in the assay on SK-OV-3 ovarian, in the assay with SW-620 colon and in the assay on U251 CNS were 59 µM, 4.87 µM and 4.21 µM, respectively. For the same compound, the TGI in the assay with COLO 205 colon is above 100 µM; in the assay with HCT-116 colon, above 100 µM; in the assay with HS 578T breast, 75.5 µM; with IGROV1 ovarian, above 100 µM; in the assay with OVCAR-5 ovarian, above 100 µM; in the assay with OVCAR-8 ovarian, above 100 µM. Besides, the TGI with SK-OV-3 ovarian, in the assay with SW-620 colon and in the assay with U251 CNS was above 100 µM each time.

For `CCOC(=O)CCn1cnc(N)n1`, the TGI in the assay on COLO 205 colon, in the assay with HCT-116 colon, in the assay on IGROV1 ovarian, in the assay on OVCAR-5 ovarian, in the assay on OVCAR-8 ovarian and with SK-OV-3 ovarian was above 100 µM each time. The TGI with SW-620 colon and in the assay on U251 CNS was above 100 µM throughout.

Take `CNC(=O)NCCN1N=C(C)/C(=C\c2ccccc2)CC1=O`: the TGI in the assay on HCT-116 colon, in the assay with IGROV1 ovarian, in the assay on OVCAR-5 ovarian, in the assay on OVCAR-8 ovarian, with SK-OV-3 ovarian and in the assay with SW-620 colon was above 100 µM throughout. Further, the concentration for total growth inhibition (TGI) in the assay on U251 CNS was above 100 µM.

With `CSc1cc(C(C)(C)C)ccc1C(O)c1ccc(C(C)(C)C)cc1SC`, the TGI with COLO 205 colon is 23 µM; with HCT-116 colon, 17.8 µM; in the assay with IGROV1 ovarian, 26.2 µM; in the assay on OVCAR-5 ovarian it was 27 µM; in the assay on OVCAR-8 ovarian, 28.8 µM; in the assay with SK-OV-3 ovarian, 32.2 µM. Moreover, the TGI in the assay with SW-620 colon worked out at 23.9 µM; in the assay with U251 CNS, 27.1 µM.

Consider `CC(C)(C)OC1=C(OC(C)(C)C)C(O)(c2ccc(Cl)cc2)C1=O` (centres undefined), for which the TGI in the assay with COLO 205 colon, with IGROV1 ovarian, with OVCAR-5 ovarian, with OVCAR-8 ovarian, in the assay with SK-OV-3 ovarian and with SW-620 colon was above 100 µM in each case. In addition, the concentration for total growth inhibition (TGI) with U251 CNS was above 100 µM.

For the compound `CC(=N/NC(N)=S)/C(C)=N/NC(N)=S`, the TGI with COLO 205 colon, with HCT-116 colon, in the assay on HS 578T breast, in the assay with IGROV1 ovarian, in the assay with MDA-MB-231 breast and in the assay on OVCAR-5 ovarian was above 100 µM in each case. Further, the TGI in the assay with OVCAR-8 ovarian and with SW-620 colon was above 100 µM each time.

Consider `N#CC(C#N)=C1CCC2C(=C(C#N)C#N)CCC12` (centres undefined), for which the concentration for total growth inhibition (TGI) in the assay on COLO 205 colon, with HCT-116 colon, with IGROV1 ovarian, with OVCAR-5 ovarian, in the assay with OVCAR-8 ovarian and in the assay on SK-OV-3 ovarian was above 100 µM each time. Besides, the TGI with SW-620 colon and in the assay on U251 CNS was above 100 µM throughout.

In the case of `CCN(CC)CCCNc1cc(OC)c(OC)c2cccnc12`, the GI50 in the assay on COLO 205 colon was 10 µM; in the assay with HCT-116 colon it was 2.18 µM; in the assay with HS 578T breast, 7.3 µM; with MDA-MB-231 breast, 6.69 µM; in the assay with OVCAR-5 ovarian it was 20.6 µM; in the assay on OVCAR-8 ovarian, 13.3 µM. Moreover, the GI50 in the assay with SK-OV-3 ovarian is 9.37 µM; with SW-620 colon, 1.8 µM; in the assay with U251 CNS it was 3.71 µM. Besides, the TGI in the assay on COLO 205 colon is 23.2 µM; in the assay with HCT-116 colon, 7.58 µM; with HS 578T breast it was 42.8 µM; in the assay with MDA-MB-231 breast, 51.4 µM; in the assay on OVCAR-5 ovarian it was 51.1 µM; in the assay with OVCAR-8 ovarian it was 35.5 µM. For the same compound, the results for the TGI in the assay on SK-OV-3 ovarian, with SW-620 colon and in the assay on U251 CNS were 44.9 µM, 20.2 µM and 21 µM, respectively.

The values above are taken from PubChem BioAssay (NCI).
